# From US9066914B2, “Prophylactic or ameliorating agent for pigmentation” (POLA CHEMICAL INDUSTRIES INC., priority 2010, dated 2015)
# Test system: normal human melanocyte
# Test: UVB-induced cell activation inhibition test using normal human melanocyte
# Format: cell-based
# Settings: formazan (MTT) production ratio, UVB-irradiated DMSO negative control = 100%; UVB 5 mJ/cm^2; 100 mM in DMSO diluted 1,000 times; conditioned medium of normal human keratinocyte; mean of 3 samples
# Experimental: The inhibitory effect of the compounds on the activation of melanocyte by activating factor produced and released from normal human keratinocyte by the ultraviolet B (UVB) was evaluated by using the index of the cell proliferation of normal human melanocyte.
# Normal human keratinocyte (Kurabo Industries, Ltd.) were seeded by Humedia-KG2 medium (Kurabo Industries, Ltd.) at a concentration of 10×10^4 cells/well in 24-well plate. Then, cells were cultured for 24 hours.
# The compound was dissolved at a concentration of 100 mM in DMSO, which was diluted 1,000 times with Humedia-KG2 medium and used as a sample solution. As for the positive control group, tranexamic acid was dissolved at a concentration of 100 mM in DMSO, which was diluted 1,000 times with Humedia-KG2 medium as a positive control sample solution. As for the negative control group, DMSO was diluted 1,000 times with Humedia-KG2 medium as a negative control sample solution.
# The medium of normal human keratinocyte was exchanged with Humedia-KG2 medium (sample solution) containing the compound at a predetermined concentration and cells were cultured for further 24 hours. After that, the medium was exchanged with PBS (phosphate buffered saline), and cells were irradiated with the ultraviolet B (UVB) at 5 mJ/cm^2 by using an ultraviolet lamp (FL20S•E-30/DMR, Toshiba Medical Supply Co., Ltd.) as a light source. After the ultraviolet radiation, PBS was exchanged with the sample solution. Cells were cultured for further 24 hours, and then the conditioned medium was collected. Normal human melanocyte cells were seeded at the concentration of 3×10^4 cells/well in 96-well plate by a medium of Medium 254 (Kurabo Industries, Ltd.). Cells were cultured for 24 hours. After that, the medium was exchanged with the conditioned medium collected from normal human keratinocyte, and cells were cultured for further 24 hours. After 24 hours, the medium was exchanged with Humedia-KG2 medium containing 0.5 mg/mL of 3-(4,5-dimethyl-2-thiazoyl)-2,5-diphenyl-2H-tetrazolium bromide (MTT), and cultured for 3 hour.
# The formazan amount was measured by the absorbances at 570 nm and 690 nm of cell lysate lysed with 2-propanol using a microplate reader (Benchmark Plus, Bio-Rad) by subtracting the absorbance at 690 nm from the absorbance at 570 nm.
# The inhibitory effect of each compounds on melanocyte proliferation was calculated as the formazan production ratio (%) when the absorbance of negative control group, which was added DMSO and UVB irradiated, was defined as 100%.
# Therefore, the small production ratio of formazan means that the inhibitory effect of the compounds is strong against the activation of melanocyte by the melanocyte activating factor released form keratinocyte.
row,Structure (SMILES),Melanocyte proliferation ratio Average (%)
1,"Cc1ccc(C(=O)NC(CCS(=O)(=O)O)C(=O)O)cc1 (racemic) [Compound 6, N-(p-toluoyl)homocysteic acid]",71.3
2,"Cc1ccccc1C(=O)N[C@@H](CS(=O)(=O)O)C(=O)O [L-Isomer of Compound 1, N-(o-Toluoyl)-L-cysteic acid]",73.7
3,"Cc1cccc(C(=O)N[C@@H](CS(=O)(=O)O)C(=O)O)c1 [L-Isomer of Compound 2, N-(m-toluoyl)cysteic acid]",77.0
4,"Cc1ccc(C(=O)N[C@@H](CS(=O)(=O)O)C(=O)O)cc1 [L-Isomer of Compound 3, N-(p-toluoyl)cysteic acid]",58.4
5,"COc1ccc(C(=O)N[C@@H](CS(=O)(=O)O)C(=O)O)cc1 [L-Isomer of Compound 4, N-(p-methoxybenzoyl)cysteic acid]",65.6
6,"O=C(N[C@@H](CS(=O)(=O)O)C(=O)O)c1ccc(-c2ccccc2)cc1 [L-Isomer of Compound 5, N-(4-phenylbenzoyl)cysteic acid]",79.0
7,"NC[C@H]1CC[C@H](C(=O)O)CC1 [Tranexamic acid, reference compound]",80.9

# Test system: pigmented guinea pigs
# Test: Ultraviolet ray-induced pigmentation suppression test using guinea pigs
# Format: in vivo, guinea pig
# Settings: 0.5% (w/v) in ethanol, 30 μL once a day for 6 weeks; L* on 43rd day minus L* before UV (300 mJ/cm^2); average ± standard deviation of 8 animals; solvent control −10.07 ± 0.78
# From the text: The hair of the dorsal skin of each of eight pigmented guinea pigs was removed and shaved using an electrical hair clipper and shaver, and each of the sites was covered with a black cloth having a total of four (two on the top and bottom and two on the right and left) irradiation windows with a size of 2×2 cm, and then irradiated with ultraviolet rays of 300 mJ/cm^2 using FL20S•E30 lamp as a light source. The operation was repeated on days 1, 3, 5, and 8 after the start of the test to induce pigmentation on the four test sites. Compound 3 was dissolved in ethanol at a concentration of 0.5% (w/v) to prepare samples for application. Further, as a control, ethanol was used alone as a sample for application. On the 1st day of the test after the ultraviolet radiation, the application of samples was started. […] The skin brightness (L* value) of each of the test sites was measured by a colorimeter (CR-200, Konica Minolta Holdings, Inc.) before the ultraviolet radiation on the day of the start of application (day 1) and after 6 weeks (on the 43rd day of the test), and a ΔL* value was calculated by subtracting an L* value before the ultraviolet radiation from the L* value on 43rd day of the test. […] Therefore, it can be evaluated that, as the ΔL* value becomes larger (high numerical value), pigmentation is more inhibited.
row,Structure (SMILES),ΔL* value
1,"Cc1ccc(C(=O)NC(CS(=O)(=O)O)C(=O)O)cc1 [L-Isomer of Compound 3, N-(p-toluoyl)cysteic acid]",−8.88 ± 0.54

# Same assay, conditions: concentration of 0.5%, applied to the skin
row,Structure (SMILES),suppression of ultraviolet-induced pigmentation (in words)
1,"Cc1ccc(C(=O)NC(CS(=O)(=O)O)C(=O)O)cc1 [L-Isomer of Compound 3, N-(p-toluoyl)cysteic acid]",clearly suppresses the pigmentation
